Data published in US20240279214A1, “ALPHA4 BETA7 INEGRIN ANTAGONISTS AND USES THEREOF” (XinThera, Inc., priority 2022, published 2024).

Target: T1, a4b7 integrin interaction with MadCAM-1 (Homo sapiens, UniProt P13612+P26010)
T1 construct: capture of a4b7 integrin expressing cells, RPMI8866; endogenous in cells; host or cells: RPMI8866
T1 sequence (P13612 34-1032): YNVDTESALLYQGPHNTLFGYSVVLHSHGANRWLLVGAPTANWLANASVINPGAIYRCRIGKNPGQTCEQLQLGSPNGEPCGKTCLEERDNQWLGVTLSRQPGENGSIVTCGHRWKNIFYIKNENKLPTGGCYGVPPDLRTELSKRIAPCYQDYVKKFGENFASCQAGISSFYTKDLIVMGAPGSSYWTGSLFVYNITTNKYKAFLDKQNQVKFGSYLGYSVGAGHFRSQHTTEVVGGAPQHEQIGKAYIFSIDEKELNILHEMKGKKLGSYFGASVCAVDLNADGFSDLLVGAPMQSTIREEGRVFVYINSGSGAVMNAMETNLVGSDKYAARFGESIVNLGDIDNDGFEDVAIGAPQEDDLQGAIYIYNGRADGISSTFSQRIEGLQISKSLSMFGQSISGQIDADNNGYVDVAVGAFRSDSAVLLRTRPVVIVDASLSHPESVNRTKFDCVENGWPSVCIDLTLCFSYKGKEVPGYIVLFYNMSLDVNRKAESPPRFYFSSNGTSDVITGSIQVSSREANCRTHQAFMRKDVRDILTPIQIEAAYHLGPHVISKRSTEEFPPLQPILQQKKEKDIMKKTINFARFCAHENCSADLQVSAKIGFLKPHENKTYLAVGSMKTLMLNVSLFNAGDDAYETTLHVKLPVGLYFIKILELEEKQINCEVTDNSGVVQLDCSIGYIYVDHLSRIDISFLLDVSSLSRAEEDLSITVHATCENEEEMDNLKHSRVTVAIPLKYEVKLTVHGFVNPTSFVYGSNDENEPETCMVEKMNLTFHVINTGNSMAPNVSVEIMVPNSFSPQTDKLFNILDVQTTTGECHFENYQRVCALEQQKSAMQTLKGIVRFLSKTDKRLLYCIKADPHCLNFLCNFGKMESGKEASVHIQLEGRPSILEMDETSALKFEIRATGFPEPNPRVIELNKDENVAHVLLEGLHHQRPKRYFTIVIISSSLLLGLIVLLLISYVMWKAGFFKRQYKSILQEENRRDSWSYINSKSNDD
T1 sequence (P26010 20-798): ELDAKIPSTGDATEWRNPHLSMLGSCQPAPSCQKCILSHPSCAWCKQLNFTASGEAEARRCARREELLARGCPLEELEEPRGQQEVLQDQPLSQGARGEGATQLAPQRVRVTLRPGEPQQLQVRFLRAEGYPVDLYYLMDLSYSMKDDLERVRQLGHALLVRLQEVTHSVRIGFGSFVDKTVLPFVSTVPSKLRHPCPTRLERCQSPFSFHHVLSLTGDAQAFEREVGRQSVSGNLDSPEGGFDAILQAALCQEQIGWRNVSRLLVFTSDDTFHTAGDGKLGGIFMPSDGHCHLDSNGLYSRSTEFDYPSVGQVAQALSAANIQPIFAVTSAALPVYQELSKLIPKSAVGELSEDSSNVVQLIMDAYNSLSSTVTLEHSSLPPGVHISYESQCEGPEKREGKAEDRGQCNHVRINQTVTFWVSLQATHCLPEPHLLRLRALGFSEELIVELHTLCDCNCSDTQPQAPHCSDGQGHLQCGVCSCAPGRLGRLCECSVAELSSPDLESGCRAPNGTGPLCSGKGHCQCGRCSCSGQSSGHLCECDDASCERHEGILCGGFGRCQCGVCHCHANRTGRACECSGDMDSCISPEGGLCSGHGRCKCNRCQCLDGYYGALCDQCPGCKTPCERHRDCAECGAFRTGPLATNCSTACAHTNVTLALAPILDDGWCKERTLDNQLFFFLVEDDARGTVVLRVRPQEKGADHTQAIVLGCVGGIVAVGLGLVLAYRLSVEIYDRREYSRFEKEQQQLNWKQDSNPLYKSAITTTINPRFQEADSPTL
Experiment: a4b7 Cell Capture Assay (RPMI8866 cells on MAdCAM-1 Fc coated plates)
Format: cell-based
Conditions: 50% human serum, 1 mM MgCl2, 1 hour incubation, CellTiter-Glo luminescence, read-out: a4B7 cell capture assay RMPI8866-MadCAM EC50
Procedure, shortened: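 RPMI8866 cells (1.0×10^6 cells/mL) in 1 mM MgCl2, 25 mM HEPES, 50% human serum were added to plates coated with human MAdCAM-1–IgG1 Fc (1.0 μg/mL) and exposed to compound (9-point, 0.08–1000 nM, 0.1% DMSO) for 1 h at 37 °C. Bound cells were read by CellTiter-Glo luminescence. IC50 came from 4-parameter fit of normalized % inhibition.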

Which EC50 does the source give for `Cc1cc2cc(c1F)[C@H](CC(=O)O)NC(=O)[C@@H](n1cc(CCN3CC(F)C3)c(C(F)(F)F)cc1=O)c1cc(cc(Cl)c1F)COc1cccc(C)c1-2` (single isomer, unassigned) [Example 49] here?
Its EC50 is 4.9 nM.

For `Cc1cc2cc(c1F)[C@H](CC(=O)O)NC(=O)[C@@H](n1cc(CCN3CC(F)C3)c(C(F)(F)F)cc1=O)c1cc(ccc1F)Oc1cccc(C(F)(F)F)c1-2` (relative stereo) [Example 28, [(14R*,17S)-12,19-difluoro-14-{5-[2-(3-fluoroazetidin-1-yl)ethyl]-2-oxo-4-(trifluoromethyl)pyridin-1-yl}-20-methyl-15-oxo-3-(trifluoromethyl)-8-oxa-16-azatetracyclo[16.3.1.1^{9,13}.0^{2,7}]tricosa-1(22),2(7),3,5,9,11,13(23),18,20-nonaen-17-yl]acetic acid], which EC50 is on record?
The EC50 was 19 nM.

For `Cc1cc2cc(c1F)[C@H](CC(=O)O)NC(=O)[C@@H](n1cc(CCN3CC(F)C3)c(C(F)(F)F)cc1=O)c1cc(ccc1F)COc1cc(Cl)cc(C)c1-2` (single isomer, unassigned) [Example 47], which EC50 is on record?
The EC50 was 42 nM.

For `Cc1cc(C(F)(F)F)cc2c1-c1cc(c(F)c(C(F)(F)F)c1)[C@H](CC(=O)O)NC(=O)[C@@H](n1cc(CCN3CC(F)C3)c(C(F)(F)F)cc1=O)c1cccc(c1)O2` (relative stereo) [Example 5, [(14R*,17S)-19-fluoro-14-{5-[2-(3-fluoroazetidin-1-yl)ethyl]-2-oxo-4-(trifluoromethyl)pyridin-1-yl}-3-methyl-15-oxo-5,20-bis(trifluoromethyl)-8-oxa-16-azatetracyclo[16.3.1.1^{9,13}.0^{2,7}]tricosa-1(21),2(7),3,5,9,11,13(23),18(22),19-nonaen-17-yl]acetic acid], which EC50 is on record?
Its EC50 is 330 nM.

Which EC50 does the source give for `Cc1cc2cc(c1F)[C@H](CC(=O)O)NC(=O)[C@@H](n1cc(CCN3CC(F)C3)c(C(F)(F)F)cc1=O)c1cc(ccc1F)COc1cc(C(F)(F)F)cc(C)c1-2` (relative stereo) [Example 65, [(15R*,18S)-13,20-difluoro-15-{5-[2-(3-fluoroazetidin-1-yl)ethyl]-2-oxo-4-(trifluoromethyl)pyridin-1-yl}-3,21-dimethyl-16-oxo-5-(trifluoromethyl)-8-oxa-17-azatetracyclo[17.3.1.1^{10,14}.0^{2,7}]tetracosa-1(23),2(7),3,5,10,12,14(24),19,21-nonaen-18-yl]acetic acid] here?
Its EC50 is 77 nM.

Which EC50 does the source give for `Cc1cccc2c1-c1cc(C3CC3)c(F)c(c1)[C@H](CC(=O)O)NC(=O)[C@@H](n1ccc(C(F)(F)F)cc1=O)c1cc(ccc1F)O2` (single isomer, unassigned) [Example 73] here?
Its EC50 is 27 nM.

With `Cc1cc2cc(c1F)[C@H](CC(=O)O)NC(=O)[C@@H](n1cc(CCN3CCC(F)(F)CC3)c(C(F)(F)F)cc1=O)c1cc(ccc1F)COc1cccc(C)c1-2` (single isomer, unassigned) [Example 62] as the molecule, how does the EC50 read?
Its EC50 is 33 nM.

`COc1cc(C)c2c(c1)Oc1ccc(F)c(c1)[C@H](n1ccc(C(F)(F)F)cc1=O)C(=O)N[C@@H](CC(=O)O)c1cc-2cc(C)c1F` (single isomer, unassigned) [Example 80] was tested. Which EC50 did it give?
The EC50 was 58 nM.

`Cc1cc2cc(c1F)[C@H](CC(=O)O)NC(=O)[C@@H](n1cc(CCN3CC(F)C3)cc(C)c1=O)c1cc(ccc1F)Oc1cccc(C)c1-2` (single isomer, unassigned) [Example 66] was tested. Which EC50 did it give?
The EC50 was 0.4 nM.

With `Cc1cc2cc(c1F)[C@H](CC(=O)O)NC(=O)[C@@H](n1cc(CCN3CC(F)C3)c(C(F)(F)F)cc1=O)c1cc(ccc1F)Oc1cccc(Cl)c1-2` (relative stereo) [Example 19, [(14R*,17S)-3-chloro-12,19-difluoro-14-{5-[2-(3-fluoroazetidin-1-yl)ethyl]-2-oxo-4-(trifluoromethyl)pyridin-1-yl}-20-methyl-15-oxo-8-oxa-16-azatetracyclo[16.3.1.1^{9,13}.0^{2,7}]tricosa-1(22),2(7),3,5,9,11,13(23),18,20-nonaen-17-yl]acetic acid] as the molecule, how does the EC50 read?
The EC50 was 0.84 nM.

How did the EC50 turn out when `Cc1cc2cc(c1F)[C@H](CC(=O)O)NC(=O)[C@@H](n1cc(CCN3CC(F)C3)c(C(F)(F)F)cc1=O)c1cc(ccc1F)Oc1cc(F)cc(C)c1-2` (relative stereo) [Example 26, [(14R*,17S)-5,12,19-trifluoro-14-{5-[2-(3-fluoroazetidin-1-yl)ethyl]-2-oxo-4-(trifluoromethyl)pyridin-1-yl}-3,20-dimethyl-15-oxo-8-oxa-16-azatetracyclo[16.3.1.1^{9,13}.0^{2,7}]tricosa-1(22),2(7),3,5,9,11,13(23),18,20-nonaen-17-yl]acetic acid] was run?
Its EC50 is 1.3 nM.

Which EC50 does the source give for `Cc1cccc2c1-c1cc(c(F)c(C(F)(F)F)c1)[C@H](CC(=O)O)NC(=O)[C@@H](n1c(=O)c3ccncc3n(C)c1=O)c1cc(ccc1F)CO2` (single isomer, unassigned) [Example 67] here?
The EC50 was 190 nM.

Which EC50 does the source give for `Cc1cc2cc(c1F)[C@H](CC(=O)O)NC(=O)[C@@H](n1cc(CCN3CC(F)C3)c(C(F)(F)F)cc1=O)c1cc(ccc1F)Oc1nn(C)cc1-2` (single isomer, unassigned) [Example 43] here?
The EC50 was 480 nM.

`Cc1cc2cc(c1F)[C@H](CC(=O)O)NC(=O)[C@@H](n1ccc(C(F)(F)F)c(Cl)c1=O)c1cc(ccc1F)COc1cccc(C)c1-2` (relative stereo) [Example 79, [(15R*,18S)-15-[3-chloro-2-oxo-4-(trifluoromethyl)pyridin-1-yl]-13,20-difluoro-3,21-dimethyl-16-oxo-8-oxa-17-azatetracyclo[17.3.1.1^{10,14}.0^{2,7}]tetracosa-1(23),2(7),3,5,10,12,14(24),19,21-nonaen-18-yl]acetic acid] was tested. Which EC50 did it give?
The EC50 was greater than 100 nM.

For `Cc1cc2cc(c1F)[C@H](CC(=O)O)NC(=O)[C@@H](n1ccc(C(F)(F)F)c(Cl)c1=O)c1cc(ccc1F)Oc1cccc(C)c1-2` (single isomer, unassigned) [Example 76], which EC50 is on record?
Its EC50 is 39 nM.

`Cc1cc2cc(c1F)[C@H](CC(=O)O)NC(=O)[C@@H](n1cc(CCN(C)C)c(C(F)(F)F)cc1=O)c1cc(ccc1F)Oc1cccc(C)c1-2` (relative stereo) [Example 29, [(14R*,17S)-14-{5-[2-(dimethylamino)ethyl]-2-oxo-4-(trifluoromethyl)pyridin-1-yl}-12,19-difluoro-3,20-dimethyl-15-oxo-8-oxa-16-azatetracyclo[16.3.1.1^{9,13}.0^{2,7}]tricosa-1(22),2(7),3,5,9,11,13(23),18,20-nonaen-17-yl]acetic acid] was tested. Which EC50 did it give?
The EC50 was 0.07 nM.

How did the EC50 turn out when `Cc1cccc2c1-c1cc(Cl)c(F)c(c1)[C@H](CC(=O)O)NC(=O)[C@@H](n1cc(CCN3CC(F)C3)c(C(F)(F)F)cc1=O)c1cc(ccc1F)O2` (relative stereo) [Example 25, [(14R*,17S)-20-chloro-12,19-difluoro-14-{5-[2-(3-fluoroazetidin-1-yl)ethyl]-2-oxo-4-(trifluoromethyl)pyridin-1-yl}-3-methyl-15-oxo-8-oxa-16-azatetracyclo[16.3.1.1^{9,13}.0^{2,7}]tricosa-1(22),2(7),3,5,9,11,13(23),18,20-nonaen-17-yl]acetic acid] was run?
Its EC50 is 2 nM.
